Test results reported in patent US8673910B2, “Proteasome inhibitors for selectively inducing apoptosis in cancer cells” (H. Lee Moffitt Cancer Center and Research Institute, priority 2008, dated 2014).

Columns and labels:
Assay type in all cases: biochemical
[1] = biological target: T1, trypsin-like (T-L) activity of purified 20S rabbit proteasome (Oryctolagus cuniculus, UniProt G1SWK8); assay: Proteolytic activity of purified 20S proteasome, fluorogenic substrate Bz-Val-Gly-Arg-AMC; details: Table 4: means of 3 experiments ± standard error, read-out: IC50 for T-L activity in vitro
T1 construct: purchased Boston Biochem
Method: (§1) In the high-throughput screen, the inventors used fluorogenic peptides as substrates to assay 3,229 compounds of the NCI Diversity, Natural Product, Challenge and Mechanistic Sets for inhibitory activity against the proteolytic activities of the purified 20S proteasome, resulting in the identification of PI-083. […] After incubation, production of hydrolyzed 7-amido-4-methyl-coumarin (AMC) groups was measured using a WALLAC Victor^2 1420 Multilabel Counter with an excitation filter of 355 nm and an emission filter of 460 nm (Perkin Elmer Life Sciences, Turku, Finland).

[2] = system: CT-L activity of rabbit 20S proteasome; assay: Dialysis using purified rabbit 20S proteasome; details: compound 10 μM, 30 min pre-incubation at 37° C.
Method: To measure the effect of dialysis on CT-L activity, compounds (10 μM) or vehicle (0.1% DMSO) were added to rabbit 20S proteasome (225 ng) (Boston Biochem) in proteasome assay buffer (50 mM Tris-HCl, pH 7.6) and incubated at 37° C. for 30 min. After 30 min of incubation, proteasome-compound mixtures were added to 10,000 MWCO Thermo Scientific Slide-A-Lyzer Dialysis Cassette (Rockford, Ill.) and dialyzed against proteasome assay buffer. Immediately (t=0) and 0.5 h, 1 h, 2 h, 4 h, and 18 h of dialysis at 4° C., samples were removed from the dialysis cassette and the CT-L 20S proteasome activity was determined. Proteasome activity was normalized against proteasome activity of DMSO control.

[3] = biological target: T2, PGPH activity of purified 20S rabbit proteasome (Oryctolagus cuniculus, UniProt A0A5F9DQW2); assay: Proteolytic activity of purified 20S proteasome, fluorogenic substrate Z-Leu-Leu-Glu-AMC; details: Table 4: means of 3 experiments ± standard error, read-out: IC50 for PGPH-like activity in vitro
T2 construct: purchased Boston Biochem
Method: as §1

T1 sequence (G1SWK8 1-271): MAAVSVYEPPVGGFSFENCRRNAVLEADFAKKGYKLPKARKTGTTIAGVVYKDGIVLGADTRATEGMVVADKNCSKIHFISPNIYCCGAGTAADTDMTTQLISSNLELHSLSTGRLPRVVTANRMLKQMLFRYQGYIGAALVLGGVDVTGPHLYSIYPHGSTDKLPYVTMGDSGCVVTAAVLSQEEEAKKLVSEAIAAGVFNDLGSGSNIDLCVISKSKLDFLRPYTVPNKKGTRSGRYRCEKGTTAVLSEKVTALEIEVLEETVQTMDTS
T2 sequence (A0A5F9DQW2 1-212): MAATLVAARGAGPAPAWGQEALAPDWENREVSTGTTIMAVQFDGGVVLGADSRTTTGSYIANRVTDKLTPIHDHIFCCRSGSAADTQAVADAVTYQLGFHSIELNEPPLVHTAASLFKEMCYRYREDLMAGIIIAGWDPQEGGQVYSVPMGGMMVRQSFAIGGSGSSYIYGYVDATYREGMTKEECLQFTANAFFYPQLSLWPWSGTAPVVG

In the case of `CC(C)C[C@H](NC(=O)[C@H](Cc1ccccc1)NC(=O)c1cnccn1)B(O)O` [Bortezomib, reference compound], the IC50 [1] is reported as 7.02 µM, the “inhibition of CT-L activity of the 20S proteasome in the absence of dialysis” value [2] is reported as 99% and the IC50 [3] is reported as 0.475 µM.
